In paper PMC7226370, “Thymus algeriensis and Thymus fontanesii: Chemical Composition, In Vivo Antiinflammatory, Pain Killing and Antipyretic Activities: A Comprehensive Comparison” (Biomolecules, 2020):

What was measured:
[1] = Total antioxidant capacity (TAC) ELISA kit; conditions: mean ± SEM, n = 3
Experimental: The total antioxidant capacity of the extracts was evaluated against ascorbic acid as a reference standard using the commercially available TAC ELISA kit (MBS726896, my BioSource, Inc., San Diego, CA, USA) according to the manufacturer’s instructions and according to Sobeh et al..

[2] = molecular target: lipoxygenase (5-LOX); assay: Lipoxygenase inhibitor screening assay kit; assay type: biochemical; conditions: in vitro, mean ± SEM, n = 3
Experimental: The potential of T. algeriensis and T. fontanesii extracts to inhibit lipoxygenase was evaluated using a lipoxygenase inhibitor screening assay kit (Cayman Chemical, AnnArbor, MI, USA) according to the manufacturer’s instructions and the study by Adellall et al..

[3] = tested on: acetic acid-induced vascular permeability in mice; assay: Acetic acid-induced vascular permeability (Evans blue); assay type: in vivo, mouse
Experimental: Acetic acid-induced vascular permeability was done as described by Sobeh et al.. […] One group of mice was injected with normal saline to serve as normal control. Mice were euthanized 30 min later by cervical dislocation, the abdominal cavities were washed with 3 mL saline solution, and the collected washings were then centrifuged at 3000 rpm for 10 min. The vascular permeability is proportional to the absorbance of Evans blue dye in the supernatant, which was detected at 610 nm using a plate reader (Biotech, Winooski, VT, USA).

[4] = tested on: carrageenan-induced hind paw edema in rats; assay: Carrageenan-induced hind-paw edema model; assay type: in vivo, rat; conditions: 1 h before carrageenan
Experimental: Nine groups of male rats (200-220 g) with five animals per group were used in this experiment. Induction of edema in the rats' right hind paw was done by injecting 0.1 mL freshly prepared carrageenan solution (1% in 0.9% NaCl), into the sub-plantar tissue. […] By the aid of a caliper ruler, the paw thickness (mm) was measured in the dorsal- plantar axis before and after injecting the carrageenan solution, and at hourly intervals for 5 h, and finally at 24 h. The cumulative anti-inflammatory effect during the whole observation period (0-24 h) was determined by calculating the area under the changes in paw thickness-time curve (AUC0-24).

[5] = tested on: leukocyte migration into the peritoneal cavity in mice; assay: Carrageenan-induced leukocyte recruitment into peritoneal cavity; assay type: in vivo, mouse
Experimental: Three hours later, the mice were euthanized, and each peritoneal cavity was washed with 3 mL of phosphate-buffered saline (PBS) containing 1mM ethylenediaminetetraacetic acid (EDTA). The total leukocytes count was determined in each peritoneal cavity wash using a hemocytometer and presented as number of cells/mL.

[6] = tested on: Brewer's yeast induced pyrexia in mice; assay: Brewer's yeast induced pyrexia; assay type: in vivo, mouse; conditions: in °C (unit assumed)
Experimental: Pyrexia in mice was induced as described by Liu et al. with minor modifications. The initial rectum temperature of each animal was measured using a lubricated digital thermometer. Brewer’s yeast suspension was prepared in normal saline (30%) and injected subcutaneously behind the animal’s neck (1 mL/100 g). After 18 h, animals’ rectal temperatures were measured again (T0). […] Pyretic animals were treated orally with either T. algeriensis or T. fontanesii extracts in three dose levels (200, 400, and 600 mg/kg), paracetamol (150 mg/kg), or vehicle. Rectal temperatures were measured at 30 min, 1, 2, 3 and 24 h following the different treatments.

## O=C1O[C@H]([C@@H](O)CO)C(O)=C1O [Ascorbic Acid]
[1]
  TAC (total antioxidant capacity): 27.6 ± 1.40 U/L

## CC(c1cc2ccccc2s1)N(O)C(N)=O (stereo not drawn) [Zileuton]
[2]
  IC50: 3200 ± 150 nM

## C[C@@H]1C[C@H]2[C@@H]3CCC4=CC(=O)C=C[C@]4(C)[C@@]3(F)[C@@H](O)C[C@]2(C)[C@@]1(O)C(=O)CO [dexamethasone]
[3]; 2 mg/kg
  lower Evans blue readings compared to control: 60%
[4]; 2 mg/kg p.o.
  reduction in AUC0-24 values compared to vehicle-treated rats: 51%
[5]; 2 mg/kg p.o. before carrageenan 500 µg i.p.
  reduction in leucocyte number: 30%

## O=C(O)Cc1ccccc1Nc1c(Cl)cccc1Cl [Diclofenac]
[2]
  IC50: 2600 ± 210 nM
[3]; 20 mg/kg
  lower Evans blue readings compared to control: 73%
[4]; 20 mg/kg p.o.
  reduction of paw thickness, of control AUC0-24: 44%
[5]; 20 mg/kg p.o. before carrageenan 500 µg i.p.
  reduction in leucocyte number: 39%

## CC(=O)Nc1ccc(O)cc1 [Paracetamol]
[6]; 150 mg/kg p.o., 30 min
  Rectal Temperature Recorded Following Different Treatments, 30 min: 38.18 ± 0.20
[6]; 150 mg/kg p.o., 1 h
  Rectal Temperature Recorded Following Different Treatments, 1 h: 37.56 ± 0.30
[6]; 150 mg/kg p.o., 2 h
  Rectal Temperature Recorded Following Different Treatments, 2 h: 37.06 ± 0.29
[6]; 150 mg/kg p.o., 3 h
  Rectal Temperature Recorded Following Different Treatments, 3 h: 36.94 ± 0.25
[6]; 150 mg/kg p.o., 24 h
  Rectal Temperature Recorded Following Different Treatments, 24 h: 36.54 ± 0.23
[6]; group of 150 mg/kg, before treatment (T0)
  Rectal Temperature measured at 18 h after yeast injection: 38.66 ± 0.18
